The melting point is the temperature of the solid-liquid transition.

Regarding `CCCCCC(=O)NS(=O)(=O)c1ccccc1NC(=O)c1ccc(C#Cc2cccc(C(F)(F)F)c2)cc1` [Example 1, 4-(3-Trifluoromethyl)phenylethynyl-N-(2-hexanoylaminosulfonylphenyl)benzamide], the melting point lay in the range of 194 to 196 °C. Consider `CC(=O)CCCC(=O)NS(=O)(=O)c1ccccc1NC(=O)c1ccc(C#Cc2cccc(C(F)(F)F)c2)cc1` [Example 2, 4-(3-Trifluoromethyl)phenylethynyl-N-(2-(5-ketohexanoylamino)-sulfonylphenyl)benzamide], for which the melting point lay in the range of 169 to 171 °C. On to `CCCOCC(=O)NS(=O)(=O)c1ccccc1NC(=O)c1ccc(C#Cc2cccc(C(F)(F)F)c2)cc1` [Example 3, 4-(3-Trifluoromethyl)phenylethynyl-N-(2-(2-propyloxyacetylamino)sulfonylphenyl)benzamide], for which the melting point lay within 175 to 177 °C. Compound `CCCCCC(=O)NS(=O)(=O)c1ccccc1NC(=O)c1ccc(C#Cc2ccc(C(F)(F)F)cc2)cc1` [Example 4, 4-(4-Trifluoromethyl)phenylethynyl-N-(2-hexanoylaminosulfonylphenyl)benzamide] showed a melting point of 210 to 212 °C. Compound `CCCCCC(=O)NS(=O)(=O)c1ccccc1NC(=O)c1ccc(C#Cc2ccc(OC(F)(F)F)cc2)cc1` [Example 5, 4-(4-Trifluoromethoxy)phenylethynyl-N-(2-hexanoylaminosulfonylphenyl)benzamide] showed a melting point of 197 to 199 °C. `CC(=O)CCCC(=O)NS(=O)(=O)c1ccccc1NC(=O)c1ccc(C#Cc2ccc(OC(F)(F)F)cc2)cc1` [Example 6, 4-(4-Trifluoromethoxy)phenylethynyl-N-(2-(5-ketohexanoylamino)-sulfonylphenyl)benzamide] showed a melting point of 204 to 205 °C.

Regarding `CCCCCC(=O)NS(=O)(=O)c1ccccc1NC(=O)c1ccc(C#Cc2ccc(F)cc2)cc1` [Example 7, 4-(4-Fluoro)phenylethynyl-N-(2-hexanoylaminosulfonylphenyl)benzamide], the melting point fell in the range of 183 to 186 °C. As to `CC(=O)CCCC(=O)NS(=O)(=O)c1ccccc1NC(=O)c1ccc(C#Cc2ccc(F)cc2)cc1` [Example 8, 4-(4-Fluoro)phenylethynyl-N-(2-(5-ketohexanoylamino)sulfonylphenyl)benzamide], the melting point was 179 to 181 °C. For the compound `CCCCCC(=O)NS(=O)(=O)c1ccccc1NC(=O)c1ccc(C#Cc2cccc(F)c2)cc1` [Example 9, 4-(3-Fluoro)phenylethynyl-N-(2-hexanoylaminosulfonylphenyl)benzamide], the melting point is 183 to 186 °C.

The record behind these values is patent US6812252B2, “Acylsulfonamide derivatives” (Ajinomoto Co., Inc., priority 2000, dated 2004).
